In US10912764B2, “Salinosporamides and methods of use thereof” (The Regents of the University of California, priority 2002, dated 2021):
Values after ≈ are worked out from the molar mass of the structure shown. Read-outs that look alike come from different tables or passages of the source.

What was measured:
Candida albicans = experiment: Antifungal screening, Candida albicans; format: cell-based; conditions: antifungal activity
[1] = test system: Candida albicans (amphoterocin B resistant); experiment: Antifungal screening, Candida albicans (amphoterocin B resistant); format: cell-based
[2] = test system: Staphylococcus aureus (methecillin resistant); experiment: Antibacterial screening, Staphylococcus aureus; format: cell-based
[3] = test system: Enterococcus faecium (vanomycin resistant); experiment: Antibacterial screening, Enterococcus faecium; format: cell-based
[4] = Solubility in organic solvents; conditions: CHCl3, methanol, and other polar solvents like DMSO, acetone, acetonitrile, benzene, pyridine, N,N-dimethyformamide
HCT-116 = HCT-116 human colon cancer cell cytotoxicity assay
[5] = HCT-116, read-out: IC50, cytotoxic activity against human colon cancer cells

Structure (SMILES) | IC50 (Candida albicans) [µg/mL] | IC50 [1] [µg/mL] | antibacterial activity, Staphylococcus aureus [2] | IC50 ([2]; Staphylococcus aureus) [µg/mL] | antibacterial activity, Enterococcus faecium [3] | IC50 ([3]; Enterococcus faecium) [µg/mL] | solubility [4] | IC50 (HCT-116; HCT-116, read-out: IC50, HCT-116) [µg/mL] | IC50 (HCT-116; [5]) [µg/mL]
C[C@@]12OC(=O)[C@]1([C@@H](O)[C@@H]1C=CCCC1)NC(=O)[C@@H]2CCCl [Salinosporamide A] | 250 (≈ 797 µM) | > 250 | no antibacterial activity | > 250 | no antibacterial activity | > 250 | soluble | 0.011 (≈ 0.0351 µM) | 0.011 (≈ 0.0351 µM)
COc1cc([C@@H]2c3cc4c(cc3[C@@H](O[C@@H]3O[C@@H]5CO[C@@H](C)O[C@H]5[C@H](O)[C@H]3O)[C@H]3COC(=O)[C@H]23)OCO4)cc(OC)c1O [etoposide, reference compound] |  |  |  |  |  |  |  |  | 0.828 (≈ 1.41 µM)
